Assays:
[1] = tested on: Gastric Secretion of the Rat; assay: Effects on gastric secretion of the rat (pylorus ligated); type: in vivo; conditions: for Gastric Secretion (value judgement, % decrease in acidity): subcutaneous, 2 x 1.5 mg/kg (total 3.0 mg/kg), 4 hours after pyloric ligation
Procedure: Evaluation of the Effects of Prostaglandin Analogues on Gastric Secretion of the Rat
A procedure based on that described by Lipmann (1969) is used to assess the influence of test compound on gastric secretion. Rats of one sex weighing 150 to 200 gm are randomly divided into groups of six animals each and fasted for 48 hours previous to the experiments, water being available ad libitum. The animals are anesthetized with ether, the abdomen opened through a midline incision, and the pylorus ligated. Test compounds are diluted from stock solution so as to administer a dose of 1.5 mg/kg in a volume equivalent to 1 ml/kg. Subcutaneous injections are applied immediately after surgery and again 2 hours later, so that a total dose of 3.0 mg/kg is administered. Dilutions are made with phosphate buffer (pH 7.38) as recommended by Lee et al (1973), in order to insure adequate stability of drugs at the subcutaneous depot. Each compound is tested in one group of rats; an additional control group received only one vehicle.
Four hours after pyloric ligation the animals are killed with ether, the cardias ligated and the stomachs removed. The volume of gastric secretion is measured and the contents centrifuged at 5000 rpm for 10 minutes. Total acid in the supernatant is titrated against a 0.1 N sodium hydroxide solution and the amount expressed in mEq.
Volume and total acid values of the treated group are compared with those of the controls by the test. Antisecretory activity is scored according to the following scale: […]

[2] = tested on: Hypertensive Rat; assay: Effects on blood pressure in the hypertensive rat (Grollman); type: in vivo; design: key: 0: Not significant at any time interval; 1: Significant at one time interval; 2: Significant at two time intervals; 3: Significant at three time intervals; 4: Significant at all four time intervals; conditions: intraperitoneal, 1 mc/kg; 2, 4, 6 and 8 hours
Procedure: Evaluation of the Effects of Prostaglandin Analogues on Blood Pressure in the Hypertensive Rat
The acute antihypertensive activity of test compounds is determined in rats made hypertensive by the procedure of Grollman (1944). Female rats weighing between 60 and 100 g are anesthetized with ether, the right kidney approached through a flank retroperitoneal incision, decapsulated and tied with a figure-of-eight ligature. The animals are left to recover and two weeks later are again anesthetized and the contralateral kidney removed. Four weeks after the second operation the rats are subjected to indirect blood pressure measurements and those showing systolic pressure values greater than 160 mmHg are selected for drug testing.
Blood pressure is measured in the tail with an inflatable occluding cuff placed at the base of the extremity and a pulse detector located distally. The cuff is inflated to approximately 300 mmHg and is slowly deflated until pulsations appear, indicating the level of systolic pressure; diastolic pressure is not recorded by this procedure. All measurements are carried out in unanesthetized, unsedated animals maintained in a warm environment during the recording procedure and for at least 6 hours before. In all cases, three pressure readings are obtained in succession and mean values are calculated thereof.
Experiments are carried out in groups of five hypertensive rats in which systolic pressure is determined immediately before and 2, 4, 6 and 8 hours after the intraperitoneal administration of the test compound at a dose of 1 mc/kg. Drugs are diluted from stock solutions with phosphate buffer (Lee et al, 1973), so as to inject this quantity in a volume of 1 ml/kg. Changes from control blood pressure values are calculated for each interval both in mmHg and in percent and evaluated for significance by means of Wilcoxon's signed rank test (Wilcoxon and Wilcox, 1964).

[3] = tested on: thyroid activity; conditions: mice; cited from earlier work
[4] = tested on: gastric secretion; conditions: dogs; cited from earlier work
[5] = tested on: blood platelets; conditions: in vitro; cited from earlier work
[6] = tested on: ovarian progesterone secretion; conditions: sheep; cited from earlier work
[7] = tested on: smooth muscle of the vas deferens; conditions: mammalian male reproductive system; cited from earlier work
[8] = tested on: growth hormone release; conditions: rats; cited from earlier work
[9] = tested on: adrenal glands; conditions: hypophysectomized rats; cited from earlier work

Compound | Gastric Secretion (value judgement, % decrease in acidity) [1] | Blood Pressure Hypertensive Rat (value judgement, blood pressure decrease) [2] | also measured
16,20-methano-oxa-1,11β,15R-trihydroxy- 8,12-bisisoprost-13E-en-9-one [TR-4853] | 0 (<26) |  | 
CCCCC(C)(C)[C@H](O)/C=C/[C@H]1[C@H](O)CC(=O)[C@@H]1CCCCOCCO (relative stereo) [TR-4616, ±16,16-dimethyl-3-oxa-1,11α,15R and S-trihydroxyprost-13E-en-9-one] | 2 (26-50, significant) | 0 | inhibition of gastric acid secretion (in words) ([1]; rat, in vivo): inhibit gastric acid secretion
CCCCC(C)(C)[C@@H](O)/C=C/[C@H]1[C@H](O)CC(=O)[C@@H]1CCCCOCCO (relative stereo) [TR-4617, ±16,16-dimethyl-3-oxa-1,11α,15R and S-trihydroxyprost-13E-en-9-one] | 0 (<26) | 1 | 
CCCCC[C@H](O)/C=C/[C@H]1[C@H](O)CC(=O)[C@@H]1CCCCCCC(=O)O [PGE1, prostaglandin E1] |  |  | thyroid activity [3]: increase thyroid activity; gastric secretion [4]: inhibits gastric secretion; aggregation of blood platelets [5]: inhibits aggregation of blood platelets in vitro; ovarian progesterone secretion [6]: inhibit ovarian progesterone secretion; contraction of smooth muscle of the vas deferens [7]: contracts the smooth muscle of the vas deferens; release of growth hormone [8]: increases the release of growth hormone; stereodogenesis in the adrenal glands [9]: stimulate stereodogenesis in the adrenal glands
CCCCC[C@H](O)/C=C/[C@H]1[C@H](CCCCOCCO)C(=O)C[C@@H]1O [TR-4649, 3-oxa-1,11β,15S-trihydroxy-8,12-bisisoprost-13E-en-9-one] | 0 (<26) |  | 
CCCCC[C@H](O)/C=C/[C@H]1[C@H](O)CC(=O)[C@@H]1CCCCOCCO [TR-4650, 3-oxa-1,11α,15S-trihydroxyprost-13E-en-9-one] | 0 (<26) | 1 | 
O=C1CC(O)C(/C=C/[C@H](O)C2CCCCC2)C1CCCCOCCO (stereo partly drawn) [TR-4856, 16,20-methano-3-oxa-1,11α,15R-trihydroxyprost-13E-en-9-one] | 0 (<26) | 2 | 
